Measured values published in ChEMBL document CHEMBL5625280, “Discovery of novel nucleoside derivatives as selective lysine acetyltransferase p300 inhibitors for cancer therapy” (Bioorg Med Chem Lett, 2024).

Tests used:
[1] = target: Histone acetyltransferase p300 (Homo sapiens, UniProt Q09472)
Description: Inhibition of p300 (unknown origin)

NCI-H520 = assay: Antiproliferative activity against human NCI-H520 cells assessed as inhibition of cell growth incubated for 72 hrs by MTT assay; format: functional, cell-based; conditions: NCI-H520, 72 h
MDA-MB-231 = assay: Antiproliferative activity against human MDA-MB-231 cells assessed as inhibition of cell proliferation at 10 uM incubated for 72 hrs by MTT assay relative to control; format: functional

Histone acetyltransferase p300, sequence (Q09472 whole entry): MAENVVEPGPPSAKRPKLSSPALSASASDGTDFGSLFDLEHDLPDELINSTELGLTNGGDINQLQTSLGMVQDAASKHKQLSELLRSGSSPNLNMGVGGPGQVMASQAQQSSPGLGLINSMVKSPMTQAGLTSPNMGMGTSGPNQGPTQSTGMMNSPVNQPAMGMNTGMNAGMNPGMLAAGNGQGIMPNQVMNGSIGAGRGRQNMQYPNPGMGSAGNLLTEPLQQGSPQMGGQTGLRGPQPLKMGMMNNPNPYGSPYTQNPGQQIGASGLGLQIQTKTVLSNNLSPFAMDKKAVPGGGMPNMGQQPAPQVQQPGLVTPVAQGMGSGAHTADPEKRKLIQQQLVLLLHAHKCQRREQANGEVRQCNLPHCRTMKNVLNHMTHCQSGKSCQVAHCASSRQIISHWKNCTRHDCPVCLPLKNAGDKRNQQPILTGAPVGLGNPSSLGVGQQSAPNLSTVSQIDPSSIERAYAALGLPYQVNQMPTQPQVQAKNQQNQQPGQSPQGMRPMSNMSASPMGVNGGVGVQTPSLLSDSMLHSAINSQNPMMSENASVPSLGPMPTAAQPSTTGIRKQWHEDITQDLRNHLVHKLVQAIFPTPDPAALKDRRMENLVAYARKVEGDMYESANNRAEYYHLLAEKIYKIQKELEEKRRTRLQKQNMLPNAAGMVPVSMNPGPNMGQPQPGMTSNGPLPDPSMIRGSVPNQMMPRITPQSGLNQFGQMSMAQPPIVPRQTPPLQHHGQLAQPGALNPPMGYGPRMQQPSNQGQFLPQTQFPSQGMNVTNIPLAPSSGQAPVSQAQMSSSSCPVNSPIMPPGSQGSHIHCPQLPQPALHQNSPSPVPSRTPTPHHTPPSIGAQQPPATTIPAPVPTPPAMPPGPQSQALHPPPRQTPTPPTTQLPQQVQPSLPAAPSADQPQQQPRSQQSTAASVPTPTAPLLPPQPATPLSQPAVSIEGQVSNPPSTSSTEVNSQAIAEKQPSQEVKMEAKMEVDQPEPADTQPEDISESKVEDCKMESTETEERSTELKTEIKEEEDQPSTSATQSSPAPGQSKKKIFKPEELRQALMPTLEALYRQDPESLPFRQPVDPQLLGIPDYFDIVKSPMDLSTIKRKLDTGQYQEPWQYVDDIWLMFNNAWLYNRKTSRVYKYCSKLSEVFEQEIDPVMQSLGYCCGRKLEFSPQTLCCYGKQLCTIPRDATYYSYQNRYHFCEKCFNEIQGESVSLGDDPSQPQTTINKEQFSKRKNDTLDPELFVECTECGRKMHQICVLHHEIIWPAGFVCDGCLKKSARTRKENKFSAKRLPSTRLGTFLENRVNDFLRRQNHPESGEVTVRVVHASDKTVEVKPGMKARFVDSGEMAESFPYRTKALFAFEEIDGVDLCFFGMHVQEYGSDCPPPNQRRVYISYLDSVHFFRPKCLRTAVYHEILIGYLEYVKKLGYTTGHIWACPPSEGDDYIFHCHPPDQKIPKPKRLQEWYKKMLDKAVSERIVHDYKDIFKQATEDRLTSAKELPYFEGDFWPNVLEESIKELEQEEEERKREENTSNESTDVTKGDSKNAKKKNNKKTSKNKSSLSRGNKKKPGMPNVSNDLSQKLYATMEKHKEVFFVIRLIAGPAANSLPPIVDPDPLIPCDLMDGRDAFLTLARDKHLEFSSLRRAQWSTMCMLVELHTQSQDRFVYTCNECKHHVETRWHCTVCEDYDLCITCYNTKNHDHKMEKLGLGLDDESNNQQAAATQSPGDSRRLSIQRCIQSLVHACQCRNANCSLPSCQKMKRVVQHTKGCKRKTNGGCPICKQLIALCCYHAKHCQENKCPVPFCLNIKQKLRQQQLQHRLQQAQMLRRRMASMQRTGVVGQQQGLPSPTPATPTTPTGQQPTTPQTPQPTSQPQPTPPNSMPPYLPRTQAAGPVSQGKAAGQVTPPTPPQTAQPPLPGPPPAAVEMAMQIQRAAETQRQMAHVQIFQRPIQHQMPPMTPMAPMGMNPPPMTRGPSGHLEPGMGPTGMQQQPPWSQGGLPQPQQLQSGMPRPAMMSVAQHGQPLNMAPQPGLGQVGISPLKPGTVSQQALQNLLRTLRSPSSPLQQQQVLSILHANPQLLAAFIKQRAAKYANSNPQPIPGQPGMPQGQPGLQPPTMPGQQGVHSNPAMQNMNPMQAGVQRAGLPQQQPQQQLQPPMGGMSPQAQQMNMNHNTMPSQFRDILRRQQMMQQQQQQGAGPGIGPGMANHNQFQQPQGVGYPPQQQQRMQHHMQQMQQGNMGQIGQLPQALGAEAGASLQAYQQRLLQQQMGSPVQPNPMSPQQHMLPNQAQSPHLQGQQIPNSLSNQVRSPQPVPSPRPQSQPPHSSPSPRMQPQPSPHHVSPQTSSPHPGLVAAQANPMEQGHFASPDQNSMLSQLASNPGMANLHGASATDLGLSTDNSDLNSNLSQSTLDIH

Row | Compound | IC50 [1] | IC50 (NCI-H520) | inhibition at 10 µM (MDA-MB-231)
1 | Nc1nc(=O)n(Cc2ccc(-c3cn(CCCCc4ccc(C(=O)O)cc4)nn3)cc2)cc1F | 250 nM | – | –
2 | Nc1ccn(Cc2ccc(-c3cn(CCCCC(=O)O)nn3)cc2)c(=O)n1 | 240 nM | – | –
3 | CCOC(=O)CCCCCn1cc(-c2ccc(Cn3cnc(N)nc3=O)cc2)nn1 | 530 nM | – | –
4 | CCOC(=O)CCCCCCn1cc(-c2ccc(Cn3cc(F)c(N)nc3=O)cc2)nn1 | 2600 nM | – | –
5 | CCOC(=O)CCCCCn1cc(Cn2cnc(N)nc2=O)nn1 | 480 nM | – | –
6 | CCOC(=O)CCCCn1cc(-c2ccc(Cn3ccc(N)nc3=O)cc2)nn1 | 560 nM | – | –
7 | CCOC(=O)CCCCCCn1cc(Cn2cnc(N)nc2=O)nn1 | 430 nM | – | –
8 | CCOC(=O)CCCCCCn1cc(-c2ccc(Cn3ccc(=O)[nH]c3=O)cc2)nn1 | 2000 nM | – | –
9 | CCOC(=O)CCCCCCn1cc(-c2ccc(Cn3cnc(N)nc3=O)cc2)nn1 | 650 nM | – | –
10 | COC(=O)c1ccc(CCCCn2cc(-c3ccc(Cn4cc(F)c(N)nc4=O)cc3)nn2)cc1 | 370 nM | 23200 nM | –
11 | CCOC(=O)CCCCn1cc(-c2ccc(Cn3cnc(N)nc3=O)cc2)nn1 | 880 nM | – | –
12 | CCOC(=O)CCCn1cc(-c2ccc(Cn3cnc(N)nc3=O)cc2)nn1 | 4590 nM | – | –
13 | Nc1ccn(Cc2ccc(-c3cn(CCCCCC(=O)O)nn3)cc2)c(=O)n1 | 4120 nM | – | –
14 | CCOC(=O)CCCCCCn1cc(-c2ccc(Cn3cnc4c(N)ncnc43)cc2)nn1 | 9900 nM | – | –
15 | CCOC(=O)CCCCCn1cc(Cn2cc(C)c(N)nc2=O)nn1 | 1100 nM | – | –
16 | Nc1ccn(Cc2ccc(-c3cn(CCCC(=O)O)nn3)cc2)c(=O)n1 | 560 nM | – | –
17 | Nc1ccn(Cc2ccc(-c3cn(CCCCCCC(=O)O)nn3)cc2)c(=O)n1 | 960 nM | – | –
18 | Nc1ccn(Cc2cn(CCCCc3ccc(C(=O)O)cc3)nn2)c(=O)n1 | 4570 nM | – | –
19 | COC(=O)c1ccc(CCCCn2cc(-c3ccc(Cn4cc(C)c(N)nc4=O)cc3)nn2)cc1 | 240 nM | – | > 50%
20 | CCOC(=O)CCCCCCn1cc(-c2ccc(Cn3ccc(N)nc3=O)cc2)nn1 | 640 nM | – | –
21 | CCOC(=O)CCCCCn1cc(Cn2cc(F)c(N)nc2=O)nn1 | 800 nM | – | –
22 | CCOC(=O)CCCCn1cc(Cn2cnc(N)nc2=O)nn1 | 7690 nM | – | –
23 | COC(=O)c1ccc(CCCCn2cc(-c3ccc(Cn4cnc(N)nc4=O)cc3)nn2)cc1 | 360 nM | – | –
24 | COC(=O)c1ccc(CCCCn2cc(-c3ccc(Cn4ccc(N)nc4=O)cc3)nn2)cc1 | 180 nM | 12200 nM | –
25 | CCOC(=O)CCCn1cc(-c2ccc(Cn3ccc(N)nc3=O)cc2)nn1 | 360 nM | – | –
26 | Nc1ccn(Cc2ccc(-c3cn(CCCCc4ccc(C(=O)O)cc4)nn3)cc2)c(=O)n1 | 1140 nM | – | –
27 | CCOC(=O)CCCCCCn1cc(-c2ccc(Cn3cc(C)c(N)nc3=O)cc2)nn1 | 770 nM | – | –
28 | CCOC(=O)CCCCCn1cc(-c2ccc(Cn3ccc(N)nc3=O)cc2)nn1 | 600 nM | – | –
29 | CCOC(=O)CCCCCn1cc(Cn2ccc(N)nc2=O)nn1 | 7800 nM | – | –
